This assay has as its target Platelet-activating factor receptor (Canis lupus familiaris). The experiment in a line: PAF-antagonist activity determined in dog platelets by PAF-binding assay.
By IC50 is commonly meant the midpoint of a concentration-inhibition curve. Low readings indicate greater potency, high ones weaker potency. `Cc1nnc2n1-c1sc(C#CCn3c4c(c5cc(Cl)ccc53)CCCC4)cc1C(c1ccccc1Cl)=NC2`: the concentration for half-maximal inhibition (IC50) stood at 90 nM.
For the compound `Cc1nnc2n1-c1sc(C#CCN3Cc4cccc5cccc(c45)C3=O)cc1C(c1ccccc1Cl)=NC2`, the IC50 was 4 nM.
Regarding `Cc1nnc2n1-c1sc(C#CCn3c(=O)n(-c4ccccc4)c4ccccc43)cc1C(c1ccccc1Cl)=NC2`, the half-maximal inhibitory concentration (IC50) came out at 1 nM.
Compound `Cc1nnc2n1-c1sc(C#CCn3c4c(c5ccccc53)CCCCC4)cc1C(c1ccccc1Cl)=NC2` returned an IC50 of 15 nM.
In the case of `Cc1nnc2n1-c1sc(C#CCn3c4c(c5ccccc53)CCCC4)cc1C(c1ccccc1Cl)=NC2`, the IC50 came to 7 nM.
`Cc1nnc2n1-c1ccc(C#CCN3C(=O)CCc4ccccc43)cc1C(c1ccc(Cl)cc1)=NC2` returned a 50% inhibitory concentration (IC50) of 100 nM.
`Cc1nnc2n1-c1sc(C#CCN3C(=O)C(=O)c4ccccc43)cc1C(c1ccccc1Cl)=NC2` returned an IC50 of 7 nM.
Consider `Cc1nnc2n1-c1sc(C#CCN3C(=O)CCc4ccccc43)cc1C(c1cc(O)ccc1Cl)=NC2`, for which the IC50 came to 80 nM.
Take `Cc1nnc2n1-c1sc(C#CCN3C(=O)CCc4ccc(Cl)cc43)cc1C(c1ccccc1Cl)=NC2`: the 50% inhibitory concentration (IC50) stood at 7 nM.
The compound `Cc1nnc2n1-c1ccc(C#CCN3C(=O)c4ccccc4C3=O)cc1C(c1ccccc1F)NC2` (stereo not given) had an IC50 of 110 nM.
The value for `Cc1nnc2n1-c1sc(C#CCn3c(=O)n(C)c(=O)c4ccccc43)cc1C(c1ccccc1Cl)=NC2` was 0.6 nM.
The same measure for `Cc1nnc2n1-c1ccc(C#CCN3C(=O)CCc4ccccc43)cc1C(c1ccccc1F)=N[C@H]2C`: 6 nM; for `Cc1nnc2n1-c1sc(C#CCn3c(=O)[nH]c4ccccc43)cc1C(c1ccccc1Cl)=NC2`: 9 nM; for `Cc1nnc2n1-c1sc(C#CCn3c(=O)c4ccccc4c4ccccc43)cc1C(c1ccccc1Cl)=NC2O` (stereo not given): 25 nM.
On to `O=C1c2ccccc2C(=O)N1CC#Cc1ccc2c(c1)C(c1ccccc1F)=NCc1nncn1-2`, for which the IC50 was 1000 nM.
In turn, `O=c1c2ccccc2c2ccccc2n1CC#Cc1cc2c(s1)-n1c(CO)nnc1CN=C2c1ccccc1Cl` yielded an IC50 of 75 nM.
The value for `O=C1CCc2ccccc2N1CC#Cc1ccc2c(c1)C(c1ccccc1F)=NCc1nnc(C(F)(F)F)n1-2` was 200 nM.
`Cc1nnc2n1-c1sc(C#CCn3c(=O)n(CCN(C)C)c4ccccc43)cc1C(c1ccccc1Cl)=NC2` displayed a half-maximal inhibitory concentration (IC50) of 30 nM.
The same measure for `CCc1nnc2n1-c1ccc(C#CCN3C(=O)c4ccccc4C3=O)cc1C(c1ccccc1F)=NC2`: 100 nM; for `Cc1nnc2n1-c1ccc(I)cc1C(c1ccccc1F)=NC2`: 1000 nM; for `Cc1nnc2n1-c1sc(C#CCn3c(=O)c4ccccc4c4ccccc4c3=O)cc1C(c1ccccc1Cl)=NC2`: 51 nM.
The value for `Cc1nnc2n1-c1sc(C#CCC34CCCc5cccc(c53)NC4=O)cc1C(c1ccccc1Cl)=NC2` (stereo not given) was 0.7 nM; that for `Cc1nnc2n1-c1sc(C#CCn3cnc4ccccc43)cc1C(c1ccccc1Cl)=NC2` was 5 nM; that for `Cc1nnc2n1-c1sc(C#CCOc3cccnc3)cc1C(c1ccccc1Cl)=NC2` was 4 nM.
Compound `Cc1nnc2n1-c1sc(C#CCN3C(=O)Cn4ccc5c(Cl)ccc3c54)cc1C(c1ccccc1Cl)=NC2` gave a half-inhibitory concentration (IC50) of 15 nM.
Consider `Cc1nnc2n1-c1sc(I)cc1C(c1cc([N+](=O)[O-])ccc1Cl)=NC2`, for which the IC50 turned out to be 360 nM.
`Cc1nnc2n1-c1sc(C#CCn3c4c(c5cc(Cl)ccc53)CCCCC4)cc1C(c1ccccc1Cl)=NC2` showed an IC50 of 70 nM.
`Cc1nnc2n1-c1sc(C#CCN3C(=O)COc4ccccc43)cc1C(c1ccccc1Cl)=NC2` came in with an IC50 of 0.7 nM.
In the case of `Cc1nnc2n1-c1sc(C#CCN3C(=O)CCc4ccccc43)cc1C(c1ccccc1Cl)=NC2`, the IC50 was 0.2 nM.
Compound `Cc1nnc2n1-c1sc(C#CCn3c(=O)c4ccccc4c4ccccc43)cc1C(c1ccccc1Cl)NC2=O` (stereo not given) gave a 50% inhibitory concentration (IC50) of 560 nM.
The value for `Cc1nnc2n1-c1sc(C#CCn3c(=O)c4ccccc4c4ccccc43)cc1C(c1ccccc1Cl)=NC2` was 13 nM; that for `Cc1nnc2n1-c1sc(C#CCn3ncc4ccccc43)cc1C(c1ccccc1Cl)=NC2` was 1 nM.
`Cc1nnc2n1-c1sc(C#CCN3C(=O)c4cccc5cccc(c45)C3=O)cc1C(c1ccccc1Cl)=NC2` returned a half-maximal inhibitory concentration (IC50) of 12 nM.
As for `Cc1nnc2n1-c1ccc(C#CCOc3cccnc3)cc1C(c1ccccc1Cl)=NC2`, the IC50 was 130 nM.
The value for `Cc1nnc2n1-c1sc(C#CCN3C(=O)CCc4ccccc43)cc1C(c1cc([N+](=O)[O-])ccc1Cl)=NC2` was 75 nM.
With `C=C=Cn1c(=O)n(CC#Cc2cc3c(s2)-n2c(C)nnc2CN=C3c2ccccc2Cl)c2ccccc21`, the half-maximal inhibitory concentration (IC50) is 6 nM.
The same measure for `Cc1nnc2n1-c1sc(C#CCn3c(=O)n(C)c4ccccc43)cc1C(c1ccccc1Cl)=NC2`: 0.3 nM; for `Cc1nnc2n1-c1sc(C#CCN3C(=O)CCc4cc(Cl)cc(Cl)c43)cc1C(c1ccccc1Cl)=NC2`: 9 nM; for `Cc1nnc2n1-c1sc(C#CCn3c(=O)n(CCN(C)C)c(=O)c4ccccc43)cc1C(c1ccccc1Cl)=NC2`: 150 nM.
Compound `Cc1nnc2n1-c1sc(C#CCn3ccc4ccccc4c3=O)cc1C(c1ccccc1Cl)=NC2` gave an IC50 of 1 nM.
`Cc1nnc2nc(-c3ccccc3F)c3cc(C#CCN4C(=O)c5ccccc5C4=O)ccc3n12` came in with an IC50 of 300 nM.
On to `Cc1nnc2n1-c1sc(C#CCN3C(=O)COc4ccc(Cl)cc43)cc1C(c1ccccc1Cl)=NC2`, for which the concentration for half-maximal inhibition (IC50) came to 5 nM.
In turn, `Cc1nnc2n1-c1ccc(I)cc1C(c1ccccc1F)NC2` (stereo not given) returned a half-maximal inhibitory concentration (IC50) of 1000 nM.
The same measure for `Cc1nnc2n1-c1sc(I)cc1C(c1ccccc1Cl)=NC2C` (stereo not given): 120 nM; for `Cc1nnc2n1-c1ccc(C#CCN3C(=O)c4ccccc4C3=O)cc1C(c1ccccc1Cl)=NC2`: 20 nM.
The compound `Cc1nnc2n1-c1sc(C#CCN3C(=O)NCc4ccccc43)cc1C(c1ccccc1Cl)=NC2` gave an IC50 of 6 nM.
On to `Cc1nnc2n1-c1sc(C#CCn3c4ccccc4c4ccccc43)cc1C(c1ccccc1Cl)=NC2`, for which the IC50 was found to be 120 nM.
Compound `Cc1nnc2n1-c1sc(C#CCN3C(=O)Cc4ccccc43)cc1C(c1ccccc1Cl)=NC2` yielded an IC50 of 3 nM.
Compound `Cc1nnc2n1-c1ccc(I)cc1C(c1ccccc1Cl)=NC2` came in with an IC50 of 1000 nM.
`Cc1nnc2n1-c1ccc(C#CCN3C(=O)c4ccccc4C3=O)cc1C(c1ccccc1F)=NC2` gave an IC50 of 10 nM.
The value for `Cc1nnc2n1-c1sc(C#CCN3C(=O)c4cccc5cccc3c45)cc1C(c1ccccc1Cl)=NC2` was 5 nM.
`Cc1nnc2n1-c1sc(C#CCn3c(=O)c4cc(Cl)ccc4c4ccc(Cl)cc43)cc1C(c1ccccc1Cl)=NC2`: the IC50 is 30 nM.
`Cc1nnc2n1-c1sc(C#CCN3C(=O)CC(C)(C)c4ccccc43)cc1C(c1ccccc1Cl)=NC2` registered a half-maximal inhibitory concentration (IC50) of 12 nM.
With `Cc1nnc2n1-c1sc(C#CCn3c(=O)ccc4ccccc43)cc1C(c1ccccc1Cl)=NC2`, the IC50 amounted to 2 nM.
Turning to `Cc1nnc2n1-c1ccc(C#CCN3C(=O)CCc4ccccc43)cc1C(c1ccccc1F)=NC2`, the IC50 is 20 nM.
The same measure for `COc1cc2c(cc1OC)C(=O)N(CC#Cc1cc3c(s1)-n1c(C)nnc1CN=C3c1ccccc1Cl)CC2`: 25 nM; for `O=C1CCc2ccccc2N1CC#Cc1ccc2c(c1)C(c1ccc(Cl)cc1)=NCc1nnc(C(F)(F)F)n1-2`: 1000 nM.
The same measure for `Cc1nnc2n1-c1sc(C#CCn3c(=O)c4ccccc4c4ccccc43)cc1C(c1cc(O)ccc1Cl)=NC2`: 15 nM; for `Cc1nnc2n1-c1sc(C#CCN3C(=O)C4(C)CCCc5cccc3c54)cc1C(c1ccccc1Cl)=NC2` (stereo not given): 12 nM; for `Cc1nnc2n1-c1sc(C#CCn3c(=O)c4ccccc4c4ccccc43)cc1C(c1ccccc1Cl)=NC2C` (stereo not given): 250 nM.

These data come from BindingDB's records for doi:10.1021/jm00107a048 (Roche Research Center, 1991).
